The values that follow are results of earlier work, collected in patent EP1223952B1, “METHODS FOR TREATMENT OF SOLID TUMORS AND METASTASIS BY GENE THERAPY” (Aguilar-Cordova, Carlos, Estuardo, priority 1999, dated 2001).

The conditions of series [1]: in combination with an LHRH agonist.
The conditions of series [2]: in vivo.
For series [3] the following is noted: oral, at all doses.

A value given as a limit tells only on which side of the number the result lay.

For the compound `CC(C)C(=O)Nc1ccc([N+](=O)[O-])c(C(F)(F)F)c1` [Eulexin, flutamide], in series [1], the diarrhea was 12%, the gynecomastia is given as 9%, the hot flashes is listed as 61% and the impotence was 33%. Besides, in series [1], the loss of libido was 36%, the nausea/vomiting is 11%, the other is 7% and the “other GI” value is 6%.

Take leuprolide acetate [Lupron Depot]: the “Elevation of LDH (> 2 x normal)” value in series [2] was 19.6%.

On to `CC(C)[C@H](N)C(=O)OCCOCn1cnc2c(=O)[nH]c(N)nc21` [valacyclovir, Valacyclovir], for which the “Peak plasma valacyclovir concentrations” value in series [3] is listed as “less than 0.5 mcg/ml”. Also, under “in vivo”, the arthralgia is reported as 1-6%, the depression was 1-7%, the “dizziness or abdominal pain” value is reported as 2-11% and the headache is recorded as 14-35%. Besides, under “in vivo”, the nausea is 6-15 % of patients and the vomiting was 1-6%. Besides, for the setting “laboratory abnormalities”, the “abnormal liver function tests” value is reported as 1-4 % of patients; the “anemia, leukopenia, thrombocytopenia and elevated serum creatinine” value is reported as ≤ 1 % of patients.
